Values after ≈ are worked out from the molar mass of the structure shown. Like-named read-outs stand apart in the source and are kept apart here.
Tested on: Atopobium vaginae
Test: MIC determination on Brucella agar, susceptibility of Atopobium vaginae strains
Assay type: cell-based
Conditions: for MIC: Fannyhessea vaginae
[1] = all tested strains of Atopobium vaginae

Row | SMILES | MIC (CCUG43049, Atopobium vaginae strain CCUG 43049, Brucella agar, anaerobic, read-out: MIC) [µg/mL] | MIC (CCUG44061, Atopobium vaginae strain CCUG 44061, Brucella agar, anaerobic, read-out: MIC) [µg/mL] | MIC (CCUG44116, Atopobium vaginae strain CCUG 44116, Brucella agar, anaerobic, read-out: MIC) [µg/mL] | MIC (CCUG44125, Atopobium vaginae strain CCUG 44125, Brucella agar, anaerobic, read-out: MIC) [µg/mL] | MIC (CCUG44156, Atopobium vaginae strain CCUG 44156, Brucella agar, anaerobic, read-out: MIC) [µg/mL] | MIC (CCUG44258, Atopobium vaginae strain CCUG 44258, Brucella agar, anaerobic, read-out: MIC) [µg/mL] | MIC (CCUG48515, Atopobium vaginae strain CCUG 48515, Brucella agar, anaerobic, read-out: MIC) [µg/mL] | MICs (range over all strains) [1] [µg/mL] | susceptibility of Atopobium to the agent (conclusion from MIC) [1] | MIC [µg/mL] | MIC (CCUG42099) [µg/mL] | MIC (CCUG43049) [µg/mL] | MIC (CCUG44061) [µg/mL] | MIC (CCUG44116) [µg/mL] | MIC (CCUG44125) [µg/mL] | MIC (CCUG44156) [µg/mL] | MIC (CCUG44258) [µg/mL] | MIC (CCUG48515) [µg/mL]
1 | Cc1ncc([N+](=O)[O-])n1CCO [Metronidazole, metronidazole] | 16 (≈ 93.5 µM) | 64 (≈ 374 µM) | 32 (≈ 187 µM) | 16 (≈ 93.5 µM) | 8 (≈ 46.7 µM) | 32 (≈ 187 µM) | 32 (≈ 187 µM) | 8 to 256 | resistant |  |  |  |  |  |  |  |  | 
2 | CSCC1CN(/N=C/c2ccc([N+](=O)[O-])o2)C(=O)O1 (stereo not shown) [Nifuratel, nifuratel] |  |  |  |  |  |  |  |  | sensitive | 1 (≈ 3.51 µM) | 0.5 (≈ 1.75 µM) | 0.25 (≈ 0.876 µM) | 1 (≈ 3.51 µM) | 0.5 (≈ 1.75 µM) | 0.25 (≈ 0.876 µM) | 0.125 (≈ 0.438 µM) | 0.5 (≈ 1.75 µM) | 0.5 (≈ 1.75 µM)
